The values that follow come from the supplement of paper PMC10307832.

What all share (assay): relative viability (nuclei count vs DMSO), 5 days (fraction); higher = more cells survive
Compound in experiment [1]: CCC1=CN=CN=C1N2CCN(CC2)CC3=NC4=C(N3)C=C(C=C4)C(F)(F)F + CC1(C)CCC(c2ccc(Cl)cc2)=C(CN2CCN(c3ccc(C(=O)NS(=O)(=O)c4ccc(N[C@H](CCN5CCOCC5)CSc5ccccc5)c(S(=O)(=O)C(F)(F)F)c4)cc3)CC2)C1 [Navitoclax] (partner 0.5 µM)
In outline: (§1)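 The day after seeding in 1536-well plates, lung cancer cell lines were treated by pin tool with a single drug, or with a fixed anchor-drug dose together with five library-drug doses (not always all listed) in √10 steps. After 5 days, a combined fix-and-stain solution (final 0.05% Triton X-100, 1% formaldehyde, 1 ug/ml Hoechst) was added. Nuclei counted on 4× images gave relative viability as treated counts over vehicle counts, reported as the median of duplicate plates.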

Compound in the experiment “Mirin + Navitoclax”: N=C1NC(=O)/C(=C/c2ccc(O)cc2)S1 [Mirin] + CC1(C)CCC(c2ccc(Cl)cc2)=C(CN2CCN(c3ccc(C(=O)NS(=O)(=O)c4ccc(N[C@H](CCN5CCOCC5)CSc5ccccc5)c(S(=O)(=O)C(F)(F)F)c4)cc3)CC2)C1 [Navitoclax] (partner 0.5 µM)
The gist of the method: as §1

Compound in the experiment “Mirin + Tozasertib”: N=C1NC(=O)/C(=C/c2ccc(O)cc2)S1 [Mirin] + Cc1cc(Nc2cc(N3CCN(C)CC3)nc(Sc3ccc(NC(=O)C4CC4)cc3)n2)n[nH]1 [Tozasertib] (partner 0.1 µM)
In outline: as §1

Compound in the experiment “Mirin + Alpelisib”: N=C1NC(=O)/C(=C/c2ccc(O)cc2)S1 [Mirin] + Cc1nc(NC(=O)N2CCC[C@H]2C(N)=O)sc1-c1ccnc(C(C)(C)C(F)(F)F)c1 [Alpelisib] (partner 2 µM)
The gist of the method:
as §1

For PC-3 [JPC-3], the relative viability in experiment [1] (first compound 0.04 µM) turned out to be 0.912; in experiment [1] (first compound 0.1265 µM), 0.781; in experiment [1] (first compound 0.4 µM), 0.745; in experiment [1] (first compound 1.265 µM), 0.733; in experiment [1] (first compound 4 µM), 0.775; in the experiment with Mirin + Navitoclax (first compound 0.25 µM) it was 0.826. Moreover, the relative viability with Mirin + Navitoclax (first compound 0.7906 µM) amounted to 0.813; in the experiment with Mirin + Navitoclax (first compound 2.5 µM), 0.812; with Mirin + Navitoclax (first compound 7.906 µM), 0.869; with Mirin + Navitoclax (first compound 25 µM), 0.904; in the experiment with Mirin + Tozasertib (first compound 0.25 µM), 0.905; in the experiment with Mirin + Tozasertib (first compound 0.7906 µM), 0.978. The relative viability with Mirin + Tozasertib (first compound 2.5 µM) is 0.893; in the experiment with Mirin + Tozasertib (first compound 7.906 µM), 0.879; with Mirin + Tozasertib (first compound 25 µM), 0.899; with Mirin + Alpelisib (first compound 0.25 µM), 1.04; in the experiment with Mirin + Alpelisib (first compound 0.7906 µM), 1.02; in the experiment with Mirin + Alpelisib (first compound 2.5 µM), 1.03. Also, the relative viability with Mirin + Alpelisib (first compound 7.906 µM) is 1.07; with Mirin + Alpelisib (first compound 25 µM) it was 1.18.

Take PC-14: the relative viability in experiment [1] (first compound 0.04 µM) was found to be 1.02; in experiment [1] (first compound 0.1265 µM) it was 1.03; in experiment [1] (first compound 0.4 µM), 1.01; in experiment [1] (first compound 1.265 µM), 0.984; in experiment [1] (first compound 4 µM), 0.982; in the experiment with Mirin + Navitoclax (first compound 0.25 µM), 1.04. Also, the relative viability with Mirin + Navitoclax (first compound 0.7906 µM) was 1.04; with Mirin + Navitoclax (first compound 2.5 µM) it was 1.08; with Mirin + Navitoclax (first compound 7.906 µM), 1.03; with Mirin + Navitoclax (first compound 25 µM), 1.17; in the experiment with Mirin + Tozasertib (first compound 0.25 µM) it was 0.587; with Mirin + Tozasertib (first compound 0.7906 µM) it was 0.581. Also, the relative viability with Mirin + Tozasertib (first compound 2.5 µM) is 0.589; with Mirin + Tozasertib (first compound 7.906 µM), 0.599; with Mirin + Tozasertib (first compound 25 µM) it was 0.566; with Mirin + Alpelisib (first compound 0.25 µM), 0.83; with Mirin + Alpelisib (first compound 0.7906 µM) it was 0.915; with Mirin + Alpelisib (first compound 2.5 µM), 1.01. Further, the relative viability with Mirin + Alpelisib (first compound 7.906 µM) worked out at 0.95; with Mirin + Alpelisib (first compound 25 µM) it was 1.05.

Take RERF-LC-KJ: the relative viability in experiment [1] (first compound 0.04 µM) stood at 0.906; in experiment [1] (first compound 0.1265 µM) it was 0.887; in experiment [1] (first compound 0.4 µM), 0.956; in experiment [1] (first compound 1.265 µM), 0.698; in experiment [1] (first compound 4 µM), 0.719; with Mirin + Navitoclax (first compound 0.25 µM), 0.979. In addition, the relative viability in the experiment with Mirin + Navitoclax (first compound 0.7906 µM) came out at 0.862; in the experiment with Mirin + Navitoclax (first compound 2.5 µM), 0.989; with Mirin + Navitoclax (first compound 7.906 µM), 1.08; with Mirin + Navitoclax (first compound 25 µM) it was 1.1; with Mirin + Tozasertib (first compound 0.25 µM), 0.488; with Mirin + Tozasertib (first compound 0.7906 µM), 0.524. For the same cell line, the relative viability in the experiment with Mirin + Tozasertib (first compound 2.5 µM) was 0.467; with Mirin + Tozasertib (first compound 7.906 µM) it was 0.424; with Mirin + Tozasertib (first compound 25 µM), 0.385; with Mirin + Alpelisib (first compound 0.25 µM), 0.822; with Mirin + Alpelisib (first compound 0.7906 µM), 0.898; in the experiment with Mirin + Alpelisib (first compound 2.5 µM), 0.956. Also, the relative viability stood at 0.916 in the experiment with Mirin + Alpelisib (first compound 7.906 µM) and 0.75 in the experiment with Mirin + Alpelisib (first compound 25 µM).

For the cell line SK-LU-1, the relative viability is 0.78 in experiment [1] (first compound 0.04 µM); 0.762 in experiment [1] (first compound 0.1265 µM); 0.929 in experiment [1] (first compound 0.4 µM); 0.697 in experiment [1] (first compound 1.265 µM); 0.868 in experiment [1] (first compound 4 µM); 1.05 with Mirin + Navitoclax (first compound 0.25 µM). The relative viability with Mirin + Navitoclax (first compound 0.7906 µM) was found to be 0.909; with Mirin + Navitoclax (first compound 2.5 µM), 0.793; with Mirin + Navitoclax (first compound 7.906 µM), 0.772; with Mirin + Navitoclax (first compound 25 µM) it was 0.498; with Mirin + Tozasertib (first compound 0.25 µM) it was 0.332; with Mirin + Tozasertib (first compound 0.7906 µM), 0.325. The relative viability was found to be 0.346 in the experiment with Mirin + Tozasertib (first compound 2.5 µM); 0.213 with Mirin + Tozasertib (first compound 7.906 µM); 0.209 in the experiment with Mirin + Tozasertib (first compound 25 µM); 1.12 with Mirin + Alpelisib (first compound 0.25 µM); 0.885 with Mirin + Alpelisib (first compound 0.7906 µM); 1.07 with Mirin + Alpelisib (first compound 2.5 µM). Moreover, the relative viability with Mirin + Alpelisib (first compound 7.906 µM) was 0.698; in the experiment with Mirin + Alpelisib (first compound 25 µM), 0.53.

As to SK-MES-1, the relative viability came out at 1.15 in experiment [1] (first compound 0.04 µM); 1.22 in experiment [1] (first compound 0.1265 µM); 1.07 in experiment [1] (first compound 0.4 µM); 1.2 in experiment [1] (first compound 1.265 µM); 1.31 in experiment [1] (first compound 4 µM); 1.2 with Mirin + Navitoclax (first compound 0.25 µM). For the same cell line, the relative viability in the experiment with Mirin + Navitoclax (first compound 0.7906 µM) was determined as 1.34; with Mirin + Navitoclax (first compound 2.5 µM), 1.23; with Mirin + Navitoclax (first compound 7.906 µM) it was 1.19; with Mirin + Navitoclax (first compound 25 µM), 1.4; in the experiment with Mirin + Tozasertib (first compound 0.25 µM), 0.95; with Mirin + Tozasertib (first compound 0.7906 µM), 1.14. For the same cell line, the relative viability with Mirin + Tozasertib (first compound 2.5 µM) turned out to be 0.87; with Mirin + Tozasertib (first compound 7.906 µM) it was 0.936; with Mirin + Tozasertib (first compound 25 µM), 0.665; in the experiment with Mirin + Alpelisib (first compound 0.25 µM) it was 0.976; with Mirin + Alpelisib (first compound 0.7906 µM), 0.908; with Mirin + Alpelisib (first compound 2.5 µM), 0.994. Moreover, the relative viability in the experiment with Mirin + Alpelisib (first compound 7.906 µM) was 0.969; with Mirin + Alpelisib (first compound 25 µM), 0.798.

For the cell line SW 1573, the relative viability came out at 0.95 in experiment [1] (first compound 0.04 µM); 1.09 in experiment [1] (first compound 0.1265 µM); 0.709 in experiment [1] (first compound 0.4 µM); 0.801 in experiment [1] (first compound 1.265 µM); 0.891 in experiment [1] (first compound 4 µM); 0.989 with Mirin + Navitoclax (first compound 0.25 µM). In addition, the relative viability with Mirin + Navitoclax (first compound 0.7906 µM) was determined as 0.98; with Mirin + Navitoclax (first compound 2.5 µM), 0.825; with Mirin + Navitoclax (first compound 7.906 µM), 0.88; with Mirin + Navitoclax (first compound 25 µM), 0.608; in the experiment with Mirin + Tozasertib (first compound 0.25 µM), 0.181; with Mirin + Tozasertib (first compound 0.7906 µM), 0.195. Besides, the relative viability came out at 0.234 with Mirin + Tozasertib (first compound 2.5 µM); 0.188 with Mirin + Tozasertib (first compound 7.906 µM); 0.108 with Mirin + Tozasertib (first compound 25 µM); 0.529 in the experiment with Mirin + Alpelisib (first compound 0.25 µM); 0.72 with Mirin + Alpelisib (first compound 0.7906 µM); 0.794 with Mirin + Alpelisib (first compound 2.5 µM). Besides, the relative viability is 0.665 with Mirin + Alpelisib (first compound 7.906 µM) and 0.508 in the experiment with Mirin + Alpelisib (first compound 25 µM).
